Experimental data published in the NIST ThermoML archive (doi:10.1016/j.tca.2017.07.001).
Several values for one entry are separate records, joined by “and”; a condition that tells them apart may be missing. Equal values may be shown once.

Details: Liquid, Transpiration method

CC(C)[N+](=O)[O-] [2-nitropropane]
Details	vapor or sublimation pressure
274.7 K	0.609 kPa
274.8 K	0.604 kPa and 0.597 kPa
279.5 K	0.799 kPa
279.6 K	0.827 kPa
284.4 K	1.092 kPa and 1.091 kPa
289.3 K	1.459 kPa
294.2 K	1.953 kPa
294.3 K	1.9 kPa
299.2 K	2.574 kPa
304.1 K	3.344 kPa
304.2 K	3.336 kPa
309.1 K	4.299 kPa
314.1 K	5.612 kPa and 5.563 kPa

CC(C)(C)[N+](=O)[O-] [2-methyl-2-nitropropane]
Details	vapor or sublimation pressure [kPa]
299.3 K	2.054
303.2 K	2.553
304.2 K	2.705
308.2 K	3.261
309.2 K	3.527
313.2 K	4.205
314.2 K	4.41
318.2 K	5.269
323.2 K	6.65
328.1 K	8.479
